Test results as given in article PMC11002876, “KcsA-Kv1.x chimeras with complete ligand-binding sites provide improved predictivity for screening selective Kv1.x blockers” (The Journal of Biological Chemistry, 2024).
Where a SMILES comes first, the peptide text is derived from it.

Target: T1, KcsA-Kv1.3 T+F chimera (Streptomyces lividans, UniProt P0A334, A54D/A57S/G53D/G56T/I60S/L59F/L81M/Q58G/R52A/R64D/T61S/Y62I/Y82H)
T1 construct: made in house; host or cells: E. coli C41(DE3) (pET45b)
T1 sequence (P0A334 1-160 R52A/G53D/A54D/G56T/A57S/Q58G/L59F/I60S/T61S/Y62I/R64D/L81M/Y82H): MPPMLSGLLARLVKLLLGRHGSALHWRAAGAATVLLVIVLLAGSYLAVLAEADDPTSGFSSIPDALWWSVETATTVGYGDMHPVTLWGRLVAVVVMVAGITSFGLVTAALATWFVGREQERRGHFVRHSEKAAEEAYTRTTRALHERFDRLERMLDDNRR
Assay: Phage ELISA-binding assay, KcsA-Kv1.3 T+F
Design: species or system human Kv1.3 turret and filter in Streptomyces lividans KcsA
Conditions: toxin displayed on M13 phage, Fig. 6D
Method: Phage display test solutions were prepared according to routine phage display protocols ([62]). Phosphorylated and annealed oligonucleotides encoding the peptide construct were ligated into linearized pAS62 phagemid vector (https://patents.google.com/patent/WO2022144560A1/en) at a vector/insert ratio of 1:3. The final phagemid construct harbored a signal sequence followed by the peptide of interest, a linker sequence ([…]), and the C-terminal part of the P3 coat protein (amino acids: 216-424 of NP_510891.1). Chemically competent XL1-Blue E. coli cells (2022249, Agilent) were transformed with the ligation product and then streaked onto ampicillin (100 μg/ml) containing LB/Amp plates and incubated for 16 h at 37 °C. A few clones were sequenced, and a single colony with confirmed target sequence was inoculated into 3 ml 2 YT medium supplemented with 100 μg/ml ampicillin and incubated at 37 °C until the culture reached midlog phase. The culture was infected with M13KO7 helper phage (N0315S, New England Biolabs) (phage/cell ratio 10:1) and was incubated for 30 min at 37 °C. The 3 ml culture was transferred into 200 ml 2YT medium, supplemented with 100 μg/ml ampicillin and 25 μg/ml kanamycin, and incubated overnight at 37 °C. The overnight cell culture (200 ml) was pelleted by centrifugation at 8000g for 10 min in 400 ml centrifuge tubes at 4 °C. […] The particle concentrations of phage solutions were determined using a NanoDrop One C (Thermo Fisher Scientific) spectrophotometer. The phage particle concentration was assessed according to the formula: (A268–A320) × 5 × 10^12 particles/ml ([62]). […]
Phage stock solutions were diluted to working concentration with phage resuspension buffer supplemented with 2 mM DDM. […] Following blocking, the wells were washed 4× with washing buffer (300 μl TBS-Tween, 0.1% v/v) using a Wellwash Versa microplate washer (Thermo Fisher Scientific); then 50 μl phage solution (in TBS-BSA-Tween, 0.1% v/v, 2 mM DDM) at determined phage concentration was added to the wells and incubated for 1 h at room temperature on a horizontal shaker. […]

SMILES	rank order of phage binding to KcsA-Kv1.3 T+F
CC[C@H](C)[C@@H]1NC(=O)CNC(=O)[C@H](Cc2ccccc2)NC(=O)[C@H](CCC(N)=O)NC(=O)[C@H](C)NC(=O)[C@H](CCCCN)NC(=O)[C@@H]2CSSC[C@@H](C(=O)N[C@@H](Cc3ccc(O)cc3)C(=O)N3CCC[C@H]3C(=O)N[C@@H](Cc3c[nH]cn3)C(=O)O)NC(=O)[C@H](CCCCN)NC(=O)[C@@H]3CSSC[C@H](NC(=O)[C@H](CCC(N)=O)NC(=O)[C@H](CCCCN)NC(=O)[C@@H]4CCCN4C(=O)[C@H](CO)NC(=O)[C@H]([C@@H](C)O)NC(=O)[C@@H](NC(=O)[C@H](CCCCN)NC(=O)[C@@H](NC(=O)[C@H](CC(=O)O)NC(=O)[C@@H](NC(=O)[C@@H](NC(=O)[C@@H](N)[C@@H](C)O)C(C)C)[C@@H](C)CC)C(C)C)CSSC[C@H](NC(=O)[C@H](CCCCN)NC(=O)[C@H](C)NC(=O)CNC(=O)[C@H](C)NC(=O)[C@H](CCCNC(=N)N)NC1=O)C(=O)N[C@@H](CCSC)C(=O)N[C@@H](CC(N)=O)C(=O)NCC(=O)N[C@@H](CCCCN)C(=O)N3)C(=O)N[C@@H](CC(C)C)C(=O)N1CCC[C@H]1C(=O)N1CCC[C@H]1C(=O)N2 [HgTx1, Hongotoxin-1] (HELM PEPTIDE1{T.V.I.D.V.K.C.T.S.P.K.Q.C.L.P.P.C.K.A.Q.F.G.I.R.A.G.A.K.C.M.N.G.K.C.K.C.Y.P.H}$PEPTIDE1,PEPTIDE1,7:R3-29:R3|PEPTIDE1,PEPTIDE1,13:R3-34:R3|PEPTIDE1,PEPTIDE1,17:R3-36:R3$$$V2.0; N-terminus and C-terminus assumed)	Vm24 > HgTx1 > KTX1
CC[C@H](C)[C@H](NC(=O)[C@H](CCC(=O)O)NC(=O)[C@@H](NC(=O)CN)C(C)C)C(=O)N[C@@H](CC(N)=O)C(=O)N[C@H](C(=O)N[C@@H](CCCCN)C(=O)N[C@H]1CSSC[C@@H]2NC(=O)[C@H](CCCCN)NC(=O)CNC(=O)[C@H](Cc3ccccc3)NC(=O)[C@H](CCCNC(=N)N)NC(=O)[C@H](CCSC)NC(=O)CNC(=O)[C@H](C)NC(=O)[C@H](CC(=O)O)NC(=O)[C@H](CCCCN)NC(=O)[C@@H]3CSSC[C@@H](C(=O)N[C@H](C(=O)N4CCC[C@H]4C(=O)N[C@@H](CCCCN)C(=O)O)[C@@H](C)O)NC(=O)[C@H](Cc4c[nH]cn4)NC(=O)[C@H](CSSC[C@H](NC(=O)[C@H](CCC(N)=O)NC(=O)[C@@H]4CCCN4C(=O)[C@H](CO)NC(=O)CNC(=O)[C@H](CO)NC1=O)C(=O)N[C@@H](CC(C)C)C(=O)N[C@@H](CCCCN)C(=O)N1CCC[C@H]1C(=O)N3)NC(=O)[C@H](CCCCN)NC(=O)[C@H](CCCNC(=N)N)NC(=O)[C@H](CC(N)=O)NC(=O)[C@H](CCSC)NC2=O)C(C)C [KTX1, Kaliotoxin-1]	Vm24 > HgTx1 > KTX1
CC[C@H](C)[C@H](NC(=O)[C@H](C)NC(=O)[C@H](C)NC(=O)[C@H](C)N)C(=O)N[C@@H](CO)C(=O)N[C@H]1CSSC[C@@H]2NC(=O)[C@H](CCCCN)NC(=O)CNC(=O)[C@H](CC(N)=O)NC(=O)[C@H](CCCCN)NC(=O)[C@@H]3CSSC[C@@H](C(N)=O)NC(=O)[C@H](Cc4ccc(O)cc4)NC(=O)[C@H](Cc4ccc(O)cc4)NC(=O)[C@@H]4CSSC[C@H](NC(=O)[C@H](CCCCN)NC(=O)[C@@H]5CCCN5C(=O)[C@@H]5CCCN5C(=O)[C@H](CSSC[C@H](NC(=O)[C@H](CCCCN)NC(=O)[C@H](CCCNC(=N)N)NC(=O)[C@H](CC(N)=O)NC(=O)[C@H](CCSC)NC2=O)C(=O)N[C@@H](CCCCN)C(=O)N4)NC(=O)[C@H](CCC(=O)O)NC(=O)[C@@H]2CCCN2C(=O)[C@H](CO)NC(=O)CNC(=O)[C@H](C(C)C)NC1=O)C(=O)N[C@@H](CCCNC(=N)N)C(=O)N[C@@H](C)C(=O)N[C@@H](CCC(N)=O)C(=O)NCC(=O)N3 [Vm24, Vm24 toxin]	Vm24 > HgTx1 > KTX1
